Patent US20250382344A1, “Soluble GLP1/GIP/NPY2 Receptor Triple Agonists” (Boehringer Ingelheim International GmH, priority 2024, published 2025)
Where two headings read alike, the source gives them in different places.

Tests used:
[1] = Solubility in 0.1 M phosphate buffer at pH 7; assay type: physicochemical; conditions: 0.1 M phosphate buffer at pH 7, 10 mg/mL final peptide concentration, shaking 2 hours at room temperature, peptides as TFA-salts, measured sample pH 6.5-7.0; for solubility: read-out: Solubility
[2] = molecular target: T1, hGLP1R (Homo sapiens, UniProt P43220); assay: hGLP1R CreLuc assay in 0.5% and 100% plasma (HEK-293 CRE-luciferase reporter cells); assay type: cell-based; conditions: HEK-293 reporter cells
T1 construct: expressed in transfected cells; host or cells: HEK-293 CRE-luciferase reporter cells

[3] = molecular target: T2, hGIPR (Homo sapiens, UniProt P48546); assay: hGIPR CreLuc assay in 0.5% and 100% plasma (CHO CRE-luciferase reporter cells); assay type: cell-based
T2 construct: expressed in transfected cells; host or cells: CHO CRE-luciferase reporter cells
T2 sequence (P48546 22-466): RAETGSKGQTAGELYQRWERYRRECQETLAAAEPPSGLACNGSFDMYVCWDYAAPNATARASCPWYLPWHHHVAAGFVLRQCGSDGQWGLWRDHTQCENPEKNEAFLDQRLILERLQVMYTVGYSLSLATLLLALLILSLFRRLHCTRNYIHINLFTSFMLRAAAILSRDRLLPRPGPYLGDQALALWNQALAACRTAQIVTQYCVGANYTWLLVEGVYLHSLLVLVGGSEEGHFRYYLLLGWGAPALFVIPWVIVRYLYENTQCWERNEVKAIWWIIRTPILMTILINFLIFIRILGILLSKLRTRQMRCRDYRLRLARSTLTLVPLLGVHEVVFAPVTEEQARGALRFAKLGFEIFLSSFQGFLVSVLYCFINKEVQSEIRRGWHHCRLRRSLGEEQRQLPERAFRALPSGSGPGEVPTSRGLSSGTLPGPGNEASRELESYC

[4] = 0.5% human plasma, read-out: hGLP1R 0.5% hP
[5] = 0.5% human plasma, read-out: hGIPR 0.5% hP

T1 sequence (P43220 24-463): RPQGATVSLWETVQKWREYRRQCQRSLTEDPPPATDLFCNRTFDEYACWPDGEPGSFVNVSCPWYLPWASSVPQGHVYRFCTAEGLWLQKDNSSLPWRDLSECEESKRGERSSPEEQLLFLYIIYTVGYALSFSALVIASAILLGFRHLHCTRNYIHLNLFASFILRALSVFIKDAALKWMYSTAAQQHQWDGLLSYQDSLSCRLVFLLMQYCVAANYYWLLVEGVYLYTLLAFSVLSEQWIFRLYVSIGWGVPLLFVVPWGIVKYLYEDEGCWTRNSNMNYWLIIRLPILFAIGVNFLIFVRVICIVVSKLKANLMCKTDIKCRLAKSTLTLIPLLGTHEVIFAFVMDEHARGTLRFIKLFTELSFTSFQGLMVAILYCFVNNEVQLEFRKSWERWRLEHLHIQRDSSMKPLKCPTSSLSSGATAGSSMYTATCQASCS

SMILES	solubility [1] [µg/mL]	EC50 [2, 4] [nM]	EC50 [3, 5] [nM]	solubility at 2 h [1] [µg/mL]	EC50 ([2]; 100% human plasma, read-out: hGLP1R 100% hP) [nM]	EC50 ([3]; 100% human plasma, read-out: hGIPR 100% hP) [nM]
CC[C@H](C)[C@H](NC(=O)[C@H](CC(C)C)NC(=O)[C@H](Cc1c[nH]cn1)NC(=O)[C@H](CCCNC(=N)N)NC(=O)[C@@H](NC(=O)[C@H](Cc1ccccc1)NC(=O)[C@H](C)NC(=O)C(C)(C)NC(=O)[C@H](CCC(N)=O)NC(=O)[C@H](C)NC(=O)[C@H](CCC(N)=O)NC(=O)[C@H](CCCCN)NC(=O)[C@H](CCC(=O)O)NC(=O)[C@H](CC(C)C)NC(=O)C(C)(C)NC(=O)[C@@H](NC(=O)[C@H](CO)NC(=O)[C@H](Cc1ccc(O)cc1)NC(=O)[C@H](CC(=O)O)NC(=O)[C@H](CO)NC(=O)[C@@H](NC(=O)[C@H](Cc1ccccc1)NC(=O)[C@@H](NC(=O)CNC(=O)[C@H](CCC(=O)O)NC(=O)C(C)(C)NC(=O)[C@@H](N)Cc1ccc(O)cc1)[C@@H](C)O)[C@@H](C)O)[C@@H](C)CC)C(C)C)C(=O)N[C@@H](CC(N)=O)C(=O)N[C@@H](CCCCNC(=O)[C@@H](N)CCCCNC(=O)CC[C@H](NC(=O)CC[C@H](NC(=O)CC[C@H](NC(=O)CC[C@H](NC(=O)CC[C@H](NC(=O)CCCCCCCCCCCCCCCCC(=O)O)C(=O)O)C(=O)O)C(=O)O)C(=O)O)C(=O)O)C(=O)NC(C)(C)C(=O)N[C@H](C(=O)N[C@@H](CCCNC(=N)N)C(=O)N[C@@H](CCC(N)=O)C(=O)N[C@@H](CCCNC(=N)N)C(=O)N[C@@H](Cc1ccc(O)cc1)C(N)=O)[C@@H](C)O [Compound 141, Y-Aib-E-G-T-F-T-S-D-Y-S-I-Aib-L-E-K-Q-A-Q-Aib-A-F-V-R-H-L-I-N-K(1,3)-Aib-T-R-Q-R-Y-NH2.C18DA-gGlu-gGlu-gGlu-gGlu-gGlu-eLys(1,2)]	1100	0.8	0.1	–	–	–
CC[C@H](C)[C@H](NC(=O)[C@H](CC(C)C)NC(=O)[C@H](Cc1c[nH]cn1)NC(=O)[C@H](CCCNC(=N)N)NC(=O)[C@@H](NC(=O)[C@H](Cc1ccccc1)NC(=O)[C@H](CCC(=O)O)NC(=O)C(C)(C)NC(=O)[C@H](CCC(N)=O)NC(=O)[C@H](C)NC(=O)[C@H](CCC(N)=O)NC(=O)[C@H](CCCCN)NC(=O)[C@H](CCC(=O)O)NC(=O)[C@H](CC(C)C)NC(=O)C(C)(C)NC(=O)[C@@H](NC(=O)[C@H](CO)NC(=O)[C@H](Cc1ccc(O)cc1)NC(=O)[C@H](CC(=O)O)NC(=O)[C@H](CO)NC(=O)[C@@H](NC(=O)[C@H](Cc1ccccc1)NC(=O)[C@@H](NC(=O)CNC(=O)[C@H](CCC(=O)O)NC(=O)C(C)(C)NC(=O)[C@@H](N)Cc1ccc(O)cc1)[C@@H](C)O)[C@@H](C)O)[C@@H](C)CC)C(C)C)C(=O)N[C@@H](CC(N)=O)C(=O)N[C@@H](CCCCNC(=O)[C@@H](N)CCCCNC(=O)CC[C@H](NC(=O)CC[C@H](NC(=O)CC[C@H](NC(=O)CC[C@H](NC(=O)CC[C@H](NC(=O)CC[C@H](NC(=O)CCCCCCCCCCCCCCCCC(=O)O)C(=O)O)C(=O)O)C(=O)O)C(=O)O)C(=O)O)C(=O)O)C(=O)NC(C)(C)C(=O)N[C@H](C(=O)N[C@@H](CCCNC(=N)N)C(=O)N[C@@H](CCC(N)=O)C(=O)N[C@@H](CCCNC(=N)N)C(=O)N[C@@H](Cc1ccc(O)cc1)C(N)=O)[C@@H](C)O [Compound 145, Y-Aib-E-G-T-F-T-S-D-Y-S-I-Aib-L-E-K-Q-A-Q-Aib-E-F-V-R-H-L-I-N-K(1,3)-Aib-T-R-Q-R-Y-NH2.C18DA-gGlu-gGlu-gGlu-gGlu-gGlu-gGlu-eLys(1,2)]	–	0.5	0.3	5000	1.8	–
CC[C@H](C)[C@H](NC(=O)[C@H](CC(C)C)NC(=O)[C@H](Cc1c[nH]cn1)NC(=O)[C@H](CCCNC(=N)N)NC(=O)[C@@H](NC(=O)[C@H](Cc1ccccc1)NC(=O)[C@H](C)NC(=O)C(C)(C)NC(=O)[C@H](CCC(N)=O)NC(=O)[C@H](C)NC(=O)[C@H](CCC(N)=O)NC(=O)[C@H](CCCCN)NC(=O)[C@H](CCC(=O)O)NC(=O)[C@H](CC(C)C)NC(=O)C(C)(C)NC(=O)[C@H](C)NC(=O)[C@H](CO)NC(=O)[C@H](Cc1ccc(O)cc1)NC(=O)[C@H](CC(=O)O)NC(=O)[C@H](CO)NC(=O)[C@@H](NC(=O)[C@H](Cc1ccccc1)NC(=O)[C@@H](NC(=O)CNC(=O)[C@H](CCC(=O)O)NC(=O)C(C)(C)NC(=O)[C@@H](N)Cc1ccc(O)cc1)[C@@H](C)O)[C@@H](C)O)C(C)C)C(=O)N[C@@H](CC(N)=O)C(=O)N[C@@H](CCCCNC(=O)[C@@H](N)CCCCNC(=O)CC[C@H](NC(=O)CC[C@H](NC(=O)CC[C@H](NC(=O)CC[C@H](NC(=O)CC[C@H](NC(=O)CC[C@H](NC(=O)CCCCCCCCCCCCCCCCC(=O)O)C(=O)O)C(=O)O)C(=O)O)C(=O)O)C(=O)O)C(=O)O)C(=O)NC(C)(C)C(=O)N[C@H](C(=O)N[C@@H](CCCNC(=N)N)C(=O)N[C@@H](CCC(N)=O)C(=O)N[C@@H](CCCNC(=N)N)C(=O)N[C@@H](Cc1ccc(O)cc1)C(N)=O)[C@@H](C)O [Compound 156, Y-Aib-E-G-T-F-T-S-D-Y-S-A-Aib-L-E-K-Q-A-Q-Aib-A-F-V-R-H-L-I-N-K(1,3)-Aib-T-R-Q-R-Y-NH2.C18DA-gGlu-gGlu-gGlu-gGlu-gGlu-gGlu-eLys(1,2)]	5100	7	0.8	–	–	–
CC[C@H](C)[C@H](NC(=O)[C@H](CC(C)C)NC(=O)[C@H](Cc1c[nH]cn1)NC(=O)[C@H](CCCNC(=N)N)NC(=O)[C@@H](NC(=O)[C@H](Cc1ccccc1)NC(=O)[C@H](C)NC(=O)C(C)(C)NC(=O)[C@H](CCC(N)=O)NC(=O)[C@H](C)NC(=O)[C@H](CCC(N)=O)NC(=O)[C@H](CCCCN)NC(=O)[C@H](CCC(=O)O)NC(=O)[C@H](CC(C)C)NC(=O)C(C)(C)NC(=O)[C@@H](NC(=O)[C@H](CO)NC(=O)[C@H](Cc1ccc(O)cc1)NC(=O)[C@H](CC(=O)O)NC(=O)[C@H](CO)NC(=O)[C@@H](NC(=O)[C@H](Cc1ccccc1)NC(=O)[C@@H](NC(=O)CNC(=O)[C@H](CCC(=O)O)NC(=O)C(C)(C)NC(=O)[C@@H](N)Cc1ccc(O)cc1)[C@@H](C)O)[C@@H](C)O)[C@@H](C)CC)C(C)C)C(=O)N[C@@H](CC(N)=O)C(=O)N[C@@H](CCCCNC(=O)CC[C@H](NC(=O)CC[C@H](NC(=O)CC[C@H](NC(=O)CC[C@H](NC(=O)CC[C@H](NC(=O)CCCCCCCCCCCCCCCCC(=O)O)C(=O)O)C(=O)O)C(=O)O)C(=O)O)C(=O)O)C(=O)N[C@@H](CC(C)C)C(=O)N[C@H](C(=O)N[C@@H](CCCNC(=N)N)C(=O)N[C@@H](CCC(N)=O)C(=O)N[C@@H](CCCNC(=N)N)C(=O)N[C@@H](Cc1ccc(O)cc1)C(N)=O)[C@@H](C)O [Compound 158, Y-Aib-E-G-T-F-T-S-D-Y-S-I-Aib-L-E-K-Q-A-Q-Aib-A-F-V-R-H-L-I-N-K(1,3)-L-T-R-Q-R-Y-NH2.C18DA-gGlu-gGlu-gGlu-gGlu-gGlu(1,2)]	–	0.6	0.5	3200	–	14.4
